From patent US20200061062A1, “INHIBITORS OF HUMAN PHOSPHATIDYLINOSITOL 3-KINASE DELTA” (ICOS Corporation, priority 2000, published 2020)

What was measured:
[1] = molecular target: T1, PI3Kδ (Homo sapiens, UniProt O00329, S253N); test: Biochemical assay of PI3K potency and selectivity using 20 μM ATP, Delta; parameters: His tag (pFastbac HTb vector) (N); FLAG; made in house; host or cells: Sf21 insect cells (baculovirus); settings: 20 μM ATP; read-out: Delta IC50
Source text: (§1) Recombinant PI3K heterodimeric complexes consisting of a p110 catalytic subunit and a p85 regulatory subunit were overexpressed using the BAC-TO-BAC® HT baculovirus expression system (GIBCO/BRL), and then purified for use in biochemical assays. The four Class I PI 3-kinases were cloned into baculovirus vectors as follows: […]

[2] = molecular target: T2, PI3Kβ (Homo sapiens, UniProt P42338); test: Biochemical assay of PI3K potency and selectivity using 20 μM ATP, Beta; settings: 20 μM ATP; for Beta/Delta Ratio: ratio of IC50 values, > = hypothetical ratio with 100 μM substituted for the missing IC50; for remaining activity at 100 µM: read-out: Beta: percent activity remaining at 100 μM, 100 μM compound did not inhibit by at least 50%; for IC50: read-out: Beta IC50
T2 construct: His tag (pFastbac HTa vector) (N); FLAG (N); made in house; host or cells: Sf21 insect cells (baculovirus)
T2 sequence (P42338 whole entry): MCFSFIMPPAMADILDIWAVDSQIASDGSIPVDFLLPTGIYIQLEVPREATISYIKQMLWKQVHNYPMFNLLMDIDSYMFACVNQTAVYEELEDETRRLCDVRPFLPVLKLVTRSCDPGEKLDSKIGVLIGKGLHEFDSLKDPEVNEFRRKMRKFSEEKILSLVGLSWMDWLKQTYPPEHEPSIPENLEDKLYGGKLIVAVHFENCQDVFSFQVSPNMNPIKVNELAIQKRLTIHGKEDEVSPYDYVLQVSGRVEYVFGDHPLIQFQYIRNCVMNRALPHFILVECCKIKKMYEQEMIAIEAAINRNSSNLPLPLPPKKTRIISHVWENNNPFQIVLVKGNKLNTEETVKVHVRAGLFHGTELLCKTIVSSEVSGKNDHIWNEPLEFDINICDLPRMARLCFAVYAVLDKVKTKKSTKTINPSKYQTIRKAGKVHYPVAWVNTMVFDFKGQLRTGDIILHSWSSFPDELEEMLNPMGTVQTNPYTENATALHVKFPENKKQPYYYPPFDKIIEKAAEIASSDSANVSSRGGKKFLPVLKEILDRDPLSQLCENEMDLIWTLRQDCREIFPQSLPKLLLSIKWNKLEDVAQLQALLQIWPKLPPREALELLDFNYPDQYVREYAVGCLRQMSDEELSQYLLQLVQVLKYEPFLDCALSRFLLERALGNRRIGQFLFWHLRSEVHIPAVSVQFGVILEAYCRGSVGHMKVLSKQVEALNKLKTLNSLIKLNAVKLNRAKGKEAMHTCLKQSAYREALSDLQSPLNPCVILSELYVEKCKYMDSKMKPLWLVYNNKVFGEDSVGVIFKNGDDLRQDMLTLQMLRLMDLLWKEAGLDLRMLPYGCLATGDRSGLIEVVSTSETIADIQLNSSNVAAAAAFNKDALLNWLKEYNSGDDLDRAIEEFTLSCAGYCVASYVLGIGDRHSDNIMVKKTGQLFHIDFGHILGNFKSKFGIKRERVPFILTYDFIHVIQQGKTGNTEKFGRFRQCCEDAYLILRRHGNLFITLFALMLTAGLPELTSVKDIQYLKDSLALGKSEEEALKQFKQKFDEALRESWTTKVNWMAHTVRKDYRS
T2 sequence (P27986 whole entry partner): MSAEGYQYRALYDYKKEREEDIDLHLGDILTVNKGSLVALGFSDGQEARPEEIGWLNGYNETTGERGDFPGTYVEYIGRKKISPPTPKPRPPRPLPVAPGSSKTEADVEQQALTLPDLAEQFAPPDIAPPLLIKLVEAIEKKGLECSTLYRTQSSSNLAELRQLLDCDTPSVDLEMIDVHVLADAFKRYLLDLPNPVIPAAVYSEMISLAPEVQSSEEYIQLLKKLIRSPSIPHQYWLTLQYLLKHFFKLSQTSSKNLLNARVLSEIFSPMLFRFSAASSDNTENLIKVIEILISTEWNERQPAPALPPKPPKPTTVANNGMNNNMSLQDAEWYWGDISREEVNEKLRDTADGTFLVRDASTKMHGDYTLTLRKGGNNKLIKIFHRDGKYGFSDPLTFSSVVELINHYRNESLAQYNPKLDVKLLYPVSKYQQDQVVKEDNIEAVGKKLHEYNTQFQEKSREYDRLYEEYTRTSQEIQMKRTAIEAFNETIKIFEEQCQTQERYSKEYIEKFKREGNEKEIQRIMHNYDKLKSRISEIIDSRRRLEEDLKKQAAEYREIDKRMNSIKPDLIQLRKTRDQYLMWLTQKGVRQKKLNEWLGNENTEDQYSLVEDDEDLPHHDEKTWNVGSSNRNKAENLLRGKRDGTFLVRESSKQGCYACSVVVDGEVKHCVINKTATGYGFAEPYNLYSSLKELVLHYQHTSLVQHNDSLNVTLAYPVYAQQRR
Method: Recombinant PI3K heterodimeric complexes consisting of a p110 catalytic subunit and a p85 regulatory subunit were overexpressed using the BAC-TO-BAC® HT baculovirus expression system (GIBCO/BRL), and then purified for use in biochemical assays. The four Class I PI 3-kinases were cloned into baculovirus vectors as follows:
The 3× substrate for the HTS contained 0.6 mM Na2ATP, 0.10 mCi/mL γ-[^32P]ATP (NEN, Pittsburgh, Pa.), 6 μM PIP2/PS liposomes (Avanti Polar Lipids, Inc., […].), in 20 mM HEPES, pH 7.4.

[3] = molecular target: T3, PI3Kα (Homo sapiens, UniProt P42336); test: Biochemical assay of PI3K potency and selectivity using 20 μM ATP, Alpha; settings: for Alpha/Delta Ratio / IC50: 20 μM ATP; for Alpha/Delta Ratio: ratio of IC50 values, > = hypothetical ratio with 100 μM substituted for the missing IC50; for remaining activity at 100 µM: read-out: percent activity remaining at 100 μM, 20 μM ATP, 100 μM compound did not inhibit by at least 50%; for IC50: read-out: Alpha IC50
T3 construct: His tag (pFastbac HTb vector) (N); FLAG; made in house; host or cells: Sf21 insect cells (baculovirus)
T3 sequence (P42336 whole entry): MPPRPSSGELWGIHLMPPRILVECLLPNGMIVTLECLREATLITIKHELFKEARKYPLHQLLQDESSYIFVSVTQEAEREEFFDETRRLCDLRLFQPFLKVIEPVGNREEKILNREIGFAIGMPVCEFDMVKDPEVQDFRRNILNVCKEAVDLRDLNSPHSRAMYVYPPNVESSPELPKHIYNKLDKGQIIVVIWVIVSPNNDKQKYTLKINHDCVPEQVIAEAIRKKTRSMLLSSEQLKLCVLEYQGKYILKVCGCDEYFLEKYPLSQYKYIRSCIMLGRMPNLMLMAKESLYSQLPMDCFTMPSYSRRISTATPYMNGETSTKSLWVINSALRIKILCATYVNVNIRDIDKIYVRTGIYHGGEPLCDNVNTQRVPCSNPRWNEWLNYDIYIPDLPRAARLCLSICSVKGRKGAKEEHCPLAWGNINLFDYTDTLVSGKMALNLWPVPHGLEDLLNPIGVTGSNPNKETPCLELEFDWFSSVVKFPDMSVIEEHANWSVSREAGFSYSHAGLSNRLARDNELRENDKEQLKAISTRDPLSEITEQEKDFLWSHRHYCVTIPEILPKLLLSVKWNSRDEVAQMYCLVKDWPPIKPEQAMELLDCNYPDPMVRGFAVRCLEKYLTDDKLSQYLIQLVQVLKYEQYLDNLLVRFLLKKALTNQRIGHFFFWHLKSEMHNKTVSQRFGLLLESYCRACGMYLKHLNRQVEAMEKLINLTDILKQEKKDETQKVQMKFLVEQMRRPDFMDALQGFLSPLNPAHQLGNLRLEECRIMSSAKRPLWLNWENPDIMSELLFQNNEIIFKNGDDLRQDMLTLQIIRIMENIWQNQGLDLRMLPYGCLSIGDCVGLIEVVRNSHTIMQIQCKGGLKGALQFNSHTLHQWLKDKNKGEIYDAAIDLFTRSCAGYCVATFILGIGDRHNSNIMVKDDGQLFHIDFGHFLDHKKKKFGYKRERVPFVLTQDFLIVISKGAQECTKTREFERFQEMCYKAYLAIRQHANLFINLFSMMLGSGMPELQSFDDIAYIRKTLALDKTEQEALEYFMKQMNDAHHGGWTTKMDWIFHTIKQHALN
T3 sequence (P27986 whole entry partner): as the sequence (P27986 whole entry partner) above
Source text: as §1

[4] = system: Murine splenocytes (Balb/c); test: B cell proliferation in response to cell surface IgM stimulation; type: cell-based; settings: Mus musculus, Splenocyte; stimulated B cell proliferation; read-out: Mouse BCR Stim (EC50)
Method: In the above experiment, the B cells were stimulated using PANSORBIN®. The effect of D-000 on B cell proliferation response when they were stimulated through their cell surface IgM using anti-IgM antibody also was measured. Murine splenocytes (Balb/c) were plated into 96-well microtiter plates at 2×10^5 cells per well in 10% FBS/RPMI. Appropriate dilutions of test inhibitor in complete medium were added to the cells and the plates were incubated for 30-60 minutes prior to the addition of stimulus. Following the preincubation with test inhibitor an F(ab′)2 preparation of goat antibody specific for the μ-chain of mouse IgM was added to the wells at a final concentration of 25 μg/mL. The plates were incubated at 37° C. for 3 days and 1 μCi of [^3H]-thymidine was added to each well for the final four hours of culture. The plates were harvested onto fiber filters washed and the incorporation of radiolabel was determined using a beta counter (Matrix 96, Packard Instrument Co., Downers Grove, Ill.) and expressed as counts per minute (CPM).
(§2) Using the methods described in Examples 3-5, above, compounds of the invention were tested for inhibitory activity and potency in assays of stimulated B and T cell proliferation, neutrophil (PMN) migration, and neutrophil (PMN) elastase release. In Table 4, the values shown are effective concentrations of the compound (EC50; μM). Where no value is given, no assay was performed.

[5] = molecular target: T3, PI3Kα; test: Biochemical assay using 200 μM ATP, Alpha
Method: (§3) PI3Kδ catalyzes a phosphotransfer from γ-[^32P]ATP to PIP2/PS liposomes at the D3′ position of the PIP2 lipid inositol ring. This reaction is MgCl2 dependent and is quenched in high molarity potassium phosphate buffer pH 8.0 containing 30 mM EDTA. […] The reaction products (and all unlabelled products) are transferred to a 96-well, prewetted PVDF filter plate, filtered, and washed in high molarity potassium phosphate. Scintillant is added to the dried wells and the incorporated radioactivity is quantitated.
(§4) This dilution established a final concentration of 200 μM ATP in the reaction volume. The reaction was stopped with 150 μL quench buffer (1.0 M potassium phosphate pH 8.0, 30 mM EDTA). A portion of the quenched solution (180 μL) was then transferred to a PVDF filter plate (Millipore # MAIP NOB prewetted with sequential 200 μL washes of 100% methanol, water, and finally 1.0 M potassium phosphate pH 8.0 wash buffer).
(§5) The PVDF filter plate was aspirated under moderate vacuum (2-5 mm Hg), washed with 5×200 μL of wash buffer, and then dried by aspiration. The filter was subsequently blotted, allowed to air dry completely, and inserted into a Wallac counting cassette with 50 μL of Ecoscint scintillation cocktail added per well.
(§6) Subsequent selectivity assays were done similarly using the same 3× substrate stocks except they contained 0.05 mCi/mL γ[^32P]ATP and 3 mM PIP2. Subsequent selectivity assays also used the same 3× enzyme stocks, except they now contained 3 nM of any given PI3K isoform.
(§7) For all selectivity assays, the test compounds were weighed out and dissolved into 10-50 mM stocks in 100% DMSO (depending on their respective solubilities) and stored at −20° C. […] From these dilutions, 20 μL was added into the assay wells alongside water blanks used for the enzyme (positive) control and the no enzyme (background) control.
(§8) This selectivity protocol is identical to that described above, except the 3× stock ATP concentration was 600 μM.

[6] = system: human neutrophils; test: Elastase exocytosis from neutrophils (fMLP-induced); type: cell-based; settings: neutrophil (PMN) elastase release
Method: Aliquots (8 mL) of heparinized blood from healthy volunteers were layered on 3 mL cushions of 7.3% FICOLL® (Sigma, St. Louis, Mo.) and 15.4% HYPAQUE® (Sigma) and centrifuged at 900 rpm for 30 min at room temperature in a table top centrifuge (Beckman). The neutrophil-rich band just above the FICOLL®-HYPAQUE® cushion was collected and washed with Hanks' balanced salt solution (HBSS) containing 0.1% gelatin. Residual erythrocytes were removed by hypotonic lysis with 0.2% NaCl. The neutrophil preparation was washed twice with HBSS containing 0.1% gelatin and used immediately.
In addition to superoxide generation, activated neutrophils also respond by releasing several proteases that are responsible for the destruction of tissues and cartilage during inflammation. As an indication of protease release, the effect of D-000 on elastase exocytosis was measured. Elastase exocytosis was quantitated by modification of the procedure described by Ossanna et al. (J Clin Invest, 77:1939-1951 (1986)), as follows. Purified human neutrophils (0.2×10^6) (treated with either DMSO or a serial dilution of D-000 in DMSO) were stimulated with fMLP in PBS containing 0.01 mg/mL cytochalasin B, 1.0 μM sodium azide (NaN3), 5 μg/mL L-methionine and 1 μM fMLP for 90 min at 37° C. in a 96-well plate. At the end of the incubation period, the plate was centrifuged for 5 min at 1000 rpm, and 90 μL of the supernatant was transferred to 10 μL of 10 mM solution of an elastase substrate peptide, MeO-suc-Ala-Ala-Pro-Val-pNA, wherein MeO-suc=methoxy-succinyl; pNA=p-nitroanilide (Calbiochem, San Diego, Calif.). Absorbance at 410 nm was monitored for 2 hr in a 96-well plate reader. To measure the relative amounts of elastase excytosed, all absorbance values were normalized to the values without any inhibitor. […] Inhibition was half-maximal at a concentration of about 2-3 μM D-000.
as §2

[7] = molecular target: T4, PI3Kγ (Homo sapiens, UniProt P48736); test: Biochemical assay using 200 μM ATP, Gamma
T4 construct: His tag (pFastbac HTb vector) (N); FLAG (N); made in house; host or cells: Sf21 insect cells (baculovirus)
T4 sequence (P48736 whole entry): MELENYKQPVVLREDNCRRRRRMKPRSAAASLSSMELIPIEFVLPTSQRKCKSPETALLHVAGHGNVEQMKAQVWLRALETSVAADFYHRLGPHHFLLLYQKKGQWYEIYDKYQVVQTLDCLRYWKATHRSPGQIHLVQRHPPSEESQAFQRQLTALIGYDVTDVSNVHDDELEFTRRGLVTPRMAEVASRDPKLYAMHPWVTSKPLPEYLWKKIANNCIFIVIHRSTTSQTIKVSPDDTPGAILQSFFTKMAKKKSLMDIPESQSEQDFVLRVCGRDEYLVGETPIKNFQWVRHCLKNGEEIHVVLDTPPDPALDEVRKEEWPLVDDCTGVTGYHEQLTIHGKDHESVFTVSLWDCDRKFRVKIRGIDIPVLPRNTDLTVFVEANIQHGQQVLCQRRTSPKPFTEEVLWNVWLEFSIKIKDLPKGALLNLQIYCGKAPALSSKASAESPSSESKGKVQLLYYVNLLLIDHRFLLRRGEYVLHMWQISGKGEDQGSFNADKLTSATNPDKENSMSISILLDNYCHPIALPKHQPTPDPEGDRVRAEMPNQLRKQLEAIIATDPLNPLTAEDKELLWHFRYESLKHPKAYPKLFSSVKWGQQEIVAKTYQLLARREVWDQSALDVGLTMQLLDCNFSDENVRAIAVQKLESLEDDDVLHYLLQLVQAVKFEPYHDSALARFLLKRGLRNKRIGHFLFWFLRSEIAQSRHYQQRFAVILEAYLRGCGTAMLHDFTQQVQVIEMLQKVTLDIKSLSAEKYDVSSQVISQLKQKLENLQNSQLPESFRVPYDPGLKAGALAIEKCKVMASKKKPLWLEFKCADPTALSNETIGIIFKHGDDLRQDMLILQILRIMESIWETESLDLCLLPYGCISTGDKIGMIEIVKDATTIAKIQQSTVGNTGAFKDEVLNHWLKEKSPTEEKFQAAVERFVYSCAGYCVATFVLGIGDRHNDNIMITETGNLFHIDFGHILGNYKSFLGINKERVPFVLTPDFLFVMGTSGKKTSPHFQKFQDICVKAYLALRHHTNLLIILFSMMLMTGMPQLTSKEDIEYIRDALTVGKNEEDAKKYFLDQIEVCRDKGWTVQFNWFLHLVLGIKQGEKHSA
Method: as §3, §4, §5, §6, §7, §8

[8] = molecular target: T1, PI3Kδ; test: Biochemical assay using 200 μM ATP, Delta;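 note: radiometric filter-binding assay: PI3Kδ transfers ³²P from γ-[³²P]ATP onto PIP2/PS liposomes, counted by scintillation, enzyme-only wells as positive control, no-enzyme wells as background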
[9] = molecular target: T2, PI3Kβ; test: Biochemical assay using 200 μM ATP, Beta

T1 sequence (O00329 whole entry S253N): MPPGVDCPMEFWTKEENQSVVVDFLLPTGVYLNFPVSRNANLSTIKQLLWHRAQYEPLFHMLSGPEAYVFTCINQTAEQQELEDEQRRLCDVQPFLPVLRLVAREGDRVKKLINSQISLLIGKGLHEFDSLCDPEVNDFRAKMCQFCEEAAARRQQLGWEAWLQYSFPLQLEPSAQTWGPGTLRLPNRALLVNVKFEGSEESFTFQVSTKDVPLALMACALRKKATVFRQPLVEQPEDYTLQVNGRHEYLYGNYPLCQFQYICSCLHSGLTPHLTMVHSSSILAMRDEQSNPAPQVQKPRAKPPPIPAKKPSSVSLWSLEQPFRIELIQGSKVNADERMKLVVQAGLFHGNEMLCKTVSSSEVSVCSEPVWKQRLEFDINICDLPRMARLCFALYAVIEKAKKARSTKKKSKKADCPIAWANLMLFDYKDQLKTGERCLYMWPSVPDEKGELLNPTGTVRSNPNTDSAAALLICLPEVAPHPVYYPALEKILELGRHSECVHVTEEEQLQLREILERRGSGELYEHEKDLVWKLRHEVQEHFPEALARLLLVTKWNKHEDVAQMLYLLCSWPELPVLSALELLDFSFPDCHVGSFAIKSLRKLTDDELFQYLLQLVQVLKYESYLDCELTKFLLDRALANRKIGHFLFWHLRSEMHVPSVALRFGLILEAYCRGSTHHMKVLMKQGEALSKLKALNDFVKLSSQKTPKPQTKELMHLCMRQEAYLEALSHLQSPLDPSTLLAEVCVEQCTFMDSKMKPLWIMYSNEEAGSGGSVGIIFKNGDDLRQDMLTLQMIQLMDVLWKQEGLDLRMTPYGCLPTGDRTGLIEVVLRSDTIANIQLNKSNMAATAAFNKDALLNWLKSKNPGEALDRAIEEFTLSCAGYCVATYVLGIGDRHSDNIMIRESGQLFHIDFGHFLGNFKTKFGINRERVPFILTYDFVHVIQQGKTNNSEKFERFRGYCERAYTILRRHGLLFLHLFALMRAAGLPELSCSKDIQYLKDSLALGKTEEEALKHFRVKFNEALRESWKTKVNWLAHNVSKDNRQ
T1 sequence (P27986 whole entry partner): as the sequence (P27986 whole entry partner) above

Compound | IC50 [1] | Beta/Delta Ratio [2] | remaining activity at 100 µM [2] | Alpha/Delta Ratio [3] | remaining activity at 100 µM [3] | melting point | IC50 [2] | EC50 [4] | Alpha/Delta Ratio [5] | EC50 [6] | Gamma/Delta Ratio [7] | IC50 [7] | IC50 [8] | Beta/Delta Ratio [9] | IC50 [9] | IC50 [3]
Nc1ncnc2c1ncn2Cc1nc2ccc(Cl)cc2c(=O)n1-c1ccccc1Cl [Compound D-004, 2-(6-Aminopurin-9-ylmethyl)-6-chloro-3-(2-chlorophenyl)-3H-quinazolin-4-one] | 64 µM | >1.6 | 89% | >2 | 93% | 294.5 to 294.8 °C (dec.) |  |  |  |  |  |  |  |  |  | 
Nc1ncnc2c1ncn2Cc1nc2c(Cl)cccc2c(=O)n1-c1ccccc1Cl [Compound D-008, 2-(6-Aminopurin-9-ylmethyl)-8-chloro-3-(2-chlorophenyl)-3H-quinazolin-4-one] | 1.2 µM | 57 |  | >85 | 82% | 273.3 to 273.5 °C | 68 µM | 1 µM |  |  |  |  |  |  |  | 
Nc1ncnc2c1ncn2Cc1nc2cccc(Cl)c2c(=O)n1-c1ccccc1-c1ccccc1 [Compound D-009, 2-(6-Aminopurin-9-ylmethyl)-3-biphenyl-2-yl-5-chloro-3H-quinazolin-4-one] | 0.12 µM | 50 |  | 683 |  | 299.9 to 300.1 °C | 5 µM | 0.3 ± 0.2 µM | 200 | 10.5 µM | 76 | 53 µM | 0.7 µM | 26 | 18 µM | 82 µM
Nc1ncnc2c1ncn2Cc1nc2cccc(Cl)c2c(=O)n1-c1ccccc1F [Compound D-012, 2-(6-Aminopurin-9-ylmethyl)-5-chloro-3-(2-fluorophenyl)-3H-quinazolin-4-one] | 0.17 µM | 65 |  | >588 | 69% | 295.6 to 295.8 °C (dec.) | 11 µM | 0.3 ± 0.2 µM | 107 | 0.3 µM | 38 |  | 1.3 ± 0.4 µM | 83 | 108 ± 4 µM | 
COc1cc2nc(CSc3ncnc4[nH]cnc34)n(-c3ccccc3Cl)c(=O)c2cc1OC [Compound D-016, 3-(2-Chlorophenyl)-6,7-dimethoxy-2-(9H-purin-6-ylsulfanylmethyl)-3H-quinazolin-4-one] | 40 µM | >3 | 81% | >2.5 | 91% | 160 to 180 °C (dec.) |  |  |  |  |  |  |  |  |  | 
O=c1c2cc(Br)ccc2nc(CSc2ncnc3[nH]cnc23)n1-c1ccccc1Cl [Compound D-017, 6-Bromo-3-(2-chlorophenyl)-2-(9H-purin-6-ylsulfanylmethyl)-3H-quinazolin-4-one] | 12 µM | >8 | 108% | >8 | 89% | 212 to 242 °C (dec.) |  |  |  |  |  |  |  |  |  | 
O=c1c2cc(Cl)ccc2nc(CSc2ncnc3[nH]cnc23)n1-c1ccccc1Cl [Compound D-020, 6-Chloro-3-(2-chlorophenyl)-2-(9H-purin-6-ylsulfanylmethyl)-3H-quinazolin-4-one] | 1.9 µM | >53 | 69% | >53 | 69% | 237.1 to 238.2 °C (dec.) |  |  |  |  |  |  |  |  |  | 
O=c1c2ccc([N+](=O)[O-])cc2nc(CSc2ncnc3[nH]cnc23)n1-c1ccccc1Cl [Compound D-023, 3-(2-Chlorophenyl)-7-nitro-2-(9H-purin-6-ylsulfanylmethyl)-3H-quinazolin-4-one] | 26 µM | >3.9 | 91% | >4 | 83% | 218 to 218.3 °C (dec.) |  |  |  |  |  |  |  |  |  | 
O=c1c2cc(O)ccc2nc(CSc2ncnc3[nH]cnc23)n1-c1ccccc1Cl [Compound D-024, 3-(2-Chlorophenyl)-6-hydroxy-2-(9H-purin-6-ylsulfanylmethyl)-3H-quinazolin-4-one] | 2.6 µM | >38 | 76% | 38 |  | 186 to 214 °C (dec.) |  |  |  | 2.9 µM |  |  |  |  |  | 100 µM
Cc1cccc2nc(CSc3ncnc4[nH]cnc34)n(-c3c(Cl)cccc3Cl)c(=O)c12 [Compound D-034, 3-(2,6-dichlorophenyl)-5-methyl-2-(9H-purin-6-ylsulfanylmethyl)-3H-quinazolin-4-one] | 0.15 µM | 74 |  | 131 |  |  | 11 µM | 0.6 ± 0.4 µM | 153 |  | 28 | 34 ± 1 µM | 1.2 ± 0.3 µM | 85 | 103 ± 4 µM | 19 µM
CCOC(=O)Cn1c(CSc2ncnc3[nH]cnc23)nc2cccc(F)c2c1=O [Compound D-045, [5-fluoro-4-oxo-2-(9H-purin-6-ylsulfanylmethyl)-4H-quinazolin-3-yl]acetic acid ethyl ester] | 7.6 µM | >13 | 74% | >13 | 98% |  |  |  |  | 9 µM |  |  |  |  |  | 
O=c1c2ccccc2nc(CSc2ncnc3[nH]cnc23)n1-c1ccccc1 [Compound D-121, 3-phenyl-2-(9H-purin-6-ylsulfanylmethyl)-3H-quinazolin-4-one] | 0.48 µM | >211 | 70% | >211 | 69% |  |  | 1.4 µM | 158 |  | 136 |  | 0.9 µM | 138 |  | 
